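A five-concentration, 48-hour dose response in 96-well plates underlies each endpoint, interpolated linearly between surrounding concentrations. GI50 marks 50% less growth.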 Activity calls are given as the source filed them. Rule as the data show it: active = GI50 up to about 1.1 µM and inactive = higher.
Tests used:
Experiment in all cases: NCI anticancer screen, dose series, 48 h
A498 = tested on: A498
A549 = tested on: A549
HCT-15 = tested on: HCT-15
HL-60 = tested on: HL-60
HT-29 = tested on: HT-29
MDA-MB-231 = tested on: MDA-MB-231
MDA-MB-435 = tested on: MDA-MB-435
MOLT-4 = tested on: MOLT-4
NCI-H226 = tested on: NCI-H226
NCI-H23 = tested on: NCI-H23
NCI-H522 = tested on: NCI-H522
PC-3 = tested on: PC-3
SF-268 = tested on: SF-268
SF-295 = tested on: SF-295
SK-MEL-5 = tested on: SK-MEL-5
SNB-75 = tested on: SNB-75
U-251 = tested on: U-251
RPMI-8226 = tested on: RPMI-8226
SR = tested on: SR

Measured: GI50

CC(C)(C)C(=O)c1c(O)c2ccccc2c2ccccc2c1=O
64.4 µM: HCT-15
inactive: A498 50.6 µM | A549 > 100 µM | HL-60 > 100 µM | HT-29 49.7 µM | MDA-MB-231 > 100 µM | MDA-MB-435 > 100 µM | MOLT-4 > 100 µM | NCI-H226 49.4 µM | NCI-H23 41 µM | NCI-H522 23.7 µM | PC-3 > 100 µM | SF-268 > 100 µM | SF-295 48.6 µM | SK-MEL-5 > 100 µM | SNB-75 30.9 µM | U-251 33.3 µM

CC1=NNC(=O)C1C1CC(c2c[nH]c3ccccc23)=NNC1=S (stereo not drawn)
inactive: A498 > 100 µM | A549 > 100 µM | HL-60 68.4 µM | HT-29 > 100 µM | MDA-MB-231 > 100 µM | MDA-MB-435 94.4 µM | MOLT-4 37.2 µM | NCI-H226 > 100 µM | NCI-H23 64 µM | NCI-H522 > 100 µM | PC-3 > 100 µM | RPMI-8226 36.2 µM | SF-268 > 100 µM | SF-295 > 100 µM | SK-MEL-5 > 100 µM | SNB-75 > 100 µM | U-251 > 100 µM
39.7 µM: HCT-15

O=C(/C(=C\c1ccc(Cl)cc1)c1ccccc1)c1ccccc1
90.4 µM: HCT-15
inactive: A498 65 µM | HL-60 15 µM | HT-29 43.8 µM | MOLT-4 51.3 µM | NCI-H226 39.6 µM | NCI-H23 72.6 µM | NCI-H522 31.6 µM | RPMI-8226 38.2 µM | SF-268 > 100 µM | SF-295 94.4 µM | SNB-75 88.9 µM | SR 40.8 µM | U-251 65.5 µM

O=S(=O)(N/C(=N\O)Nc1ccc(Cl)cc1)c1cc2ccccc2o1
14.7 µM: HCT-15
inactive: A549 26.1 µM | HL-60 15.3 µM | HT-29 22.9 µM | MDA-MB-231 18 µM | MDA-MB-435 12.2 µM | MOLT-4 22.6 µM | NCI-H226 33.4 µM | NCI-H23 18 µM | NCI-H522 12.2 µM | PC-3 25.4 µM | SF-268 18.3 µM | SF-295 14.9 µM | SK-MEL-5 15.3 µM | SNB-75 38.1 µM | U-251 17.7 µM

O=C1c2ccccc2C(=O)c2c1c1cc(O)ccc1n2Cc1ccc(Cl)cc1Cl
inactive: A498 17.2 µM | A549 3.27 µM | HL-60 46.7 µM | HT-29 16.6 µM | MDA-MB-231 3.85 µM | MDA-MB-435 9.42 µM | MOLT-4 15.3 µM | NCI-H226 11.5 µM | NCI-H23 7.23 µM | PC-3 1.61 µM | RPMI-8226 7.18 µM | SF-268 12.9 µM | SF-295 7.5 µM | SK-MEL-5 17.2 µM | SR 3.61 µM | U-251 3.46 µM
5.66 µM: HCT-15

Cc1nc2ccc(F)cc2c2c1CCN2c1ccccc1
inactive: A498 27.6 µM | A549 22.6 µM | HL-60 7.43 µM | HT-29 8.51 µM | MDA-MB-435 14.1 µM | MOLT-4 15.1 µM | NCI-H226 16.6 µM | NCI-H23 20 µM | NCI-H522 17.8 µM | PC-3 19.1 µM | RPMI-8226 15.8 µM | SF-268 23.3 µM | SF-295 11.7 µM | SK-MEL-5 12.9 µM | SNB-75 12.8 µM | SR 16.7 µM | U-251 26 µM
25.9 µM: HCT-15

OCc1ccc2c(c1)CC1(Cc3ccc(/C=N/O)cc3C1)C2 (stereo not drawn)
1.16 µM: HCT-15
inactive: A498 27.7 µM | A549 4.93 µM | HT-29 1.89 µM | MDA-MB-231 6.27 µM | MOLT-4 4.73 µM | NCI-H226 10 µM | NCI-H23 3.19 µM | NCI-H522 2.08 µM | PC-3 3.74 µM | RPMI-8226 2.25 µM | SF-268 13.7 µM | SF-295 2.43 µM | SK-MEL-5 1.34 µM | SNB-75 2.88 µM | U-251 2.86 µM
active: HL-60 0.41 µM | MDA-MB-435 0.445 µM

N/N=c1/nc2n(c3ncccc13)C=CNN2
> 100 µM: HCT-15
inactive: A549 > 100 µM | HL-60 > 100 µM | HT-29 > 100 µM | MOLT-4 > 100 µM | NCI-H226 > 100 µM | NCI-H23 > 100 µM | NCI-H522 > 100 µM | RPMI-8226 > 100 µM | SF-268 > 100 µM | SF-295 > 100 µM | SK-MEL-5 > 100 µM | SR > 100 µM | U-251 > 100 µM

CN1CCC2(CC1)/C(=N/C1CCCCC1)NC(=S)N2c1ccccc1
inactive: A498 > 100 µM | A549 > 100 µM | HL-60 > 100 µM | HT-29 > 100 µM | MDA-MB-231 > 100 µM | MDA-MB-435 > 100 µM | MOLT-4 > 100 µM | NCI-H226 > 100 µM | NCI-H23 > 100 µM | RPMI-8226 > 100 µM | SF-268 > 100 µM | SF-295 > 100 µM | SK-MEL-5 > 100 µM | SNB-75 > 100 µM | SR > 100 µM | U-251 > 100 µM
> 100 µM: HCT-15

Cc1cc(Br)cc(C)c1NC(=O)C(=O)C(C(=O)c1ccncc1)C1OC(=O)c2ccccc21 (stereo not drawn)
> 100 µM: HCT-15
inactive: A498 > 100 µM | A549 > 100 µM | HL-60 > 100 µM | MOLT-4 > 100 µM | NCI-H226 > 100 µM | NCI-H23 > 100 µM | NCI-H522 > 100 µM | RPMI-8226 > 100 µM | SF-268 > 100 µM | SR > 100 µM | U-251 > 100 µM

CC(=O)/C(=C\c1ccc(Cl)c(Cl)c1)C(=O)C(C)CN(C)C (stereo not drawn)
inactive: A498 2.96 µM | A549 14.5 µM | HL-60 2 µM | HT-29 5.12 µM | MDA-MB-231 11.5 µM | MDA-MB-435 3.24 µM | MOLT-4 2.19 µM | NCI-H226 2.39 µM | NCI-H23 13.4 µM | PC-3 4.62 µM | RPMI-8226 1.32 µM | SF-268 3.62 µM | SF-295 4.32 µM | SK-MEL-5 11.9 µM | SR 1.82 µM | U-251 3.26 µM
2.33 µM: HCT-15

CC(=O)C(C(C)=O)=C1CCCC(O)O1 (stereo not drawn)
> 100 µM: HCT-15
inactive: A498 > 100 µM | A549 > 100 µM | HL-60 > 100 µM | HT-29 > 100 µM | MDA-MB-231 > 100 µM | MDA-MB-435 > 100 µM | MOLT-4 > 100 µM | NCI-H226 > 100 µM | NCI-H23 > 100 µM | RPMI-8226 > 100 µM | SF-268 > 100 µM | SF-295 > 100 µM | SK-MEL-5 > 100 µM | SNB-75 > 100 µM | SR 62.2 µM | U-251 > 100 µM

CC1CC(NN)=Nc2ccccc2N1 (stereo not drawn)
> 100 µM: HCT-15
inactive: A498 > 100 µM | A549 > 100 µM | HL-60 60.3 µM | HT-29 > 100 µM | MDA-MB-231 > 100 µM | MDA-MB-435 > 100 µM | MOLT-4 > 100 µM | NCI-H226 > 100 µM | NCI-H23 > 100 µM | NCI-H522 > 100 µM | PC-3 > 100 µM | RPMI-8226 65.9 µM | SF-268 > 100 µM | SF-295 > 100 µM | SK-MEL-5 > 100 µM | U-251 > 100 µM

Cc1cc(C)c(C(=O)c2nnc3ccccc3c2N)c(C)c1
inactive: A498 26.9 µM | A549 23.3 µM | HL-60 7.55 µM | HT-29 25.5 µM | MDA-MB-231 16.9 µM | MDA-MB-435 15.8 µM | MOLT-4 45.4 µM | NCI-H226 16.5 µM | NCI-H23 22.1 µM | PC-3 17.4 µM | RPMI-8226 24.9 µM | SF-268 48.3 µM | SK-MEL-5 13.5 µM | SNB-75 27.5 µM | SR 24 µM | U-251 28.7 µM

S=C1NCCN1C(=S)Nc1ccccc1
inactive: A498 32.4 µM | A549 44.1 µM | HL-60 > 100 µM | HT-29 > 100 µM | MDA-MB-231 > 100 µM | MDA-MB-435 46.5 µM | MOLT-4 34.8 µM | NCI-H226 51.4 µM | NCI-H23 60.4 µM | NCI-H522 60.8 µM | SF-268 99.5 µM | SF-295 > 100 µM | SK-MEL-5 > 100 µM | SNB-75 32.4 µM | SR 42.4 µM | U-251 > 100 µM
68.9 µM: HCT-15

NS(=O)(=O)c1nnc(NC(=O)C23CC4CC(CC(C4)C2)C3)s1
inactive: A498 > 100 µM | A549 > 100 µM | MDA-MB-231 > 100 µM | MDA-MB-435 > 100 µM | MOLT-4 > 100 µM | NCI-H226 > 100 µM | NCI-H23 > 100 µM | NCI-H522 68.2 µM | RPMI-8226 88.9 µM | SF-268 55.7 µM | SF-295 > 100 µM | SK-MEL-5 96.2 µM | SR > 100 µM | U-251 > 100 µM
> 100 µM: HCT-15

COC(=O)/C(C#N)=C1\CCC(Nc2cccc(C(F)(F)F)c2)N1C (stereo not drawn)
inactive: A549 > 100 µM | HL-60 61.7 µM | HT-29 > 100 µM | MOLT-4 51.6 µM | NCI-H226 > 100 µM | NCI-H23 72.1 µM | NCI-H522 > 100 µM | RPMI-8226 > 100 µM | SF-268 > 100 µM | SF-295 > 100 µM | SNB-75 43.3 µM | U-251 > 100 µM

Clc1ccc(/C=C/c2nc(-c3ccc(Cl)cc3)cn3c2nc2ccccc23)cc1
> 100 µM: HCT-15
inactive: A498 > 100 µM | A549 > 100 µM | HL-60 > 100 µM | HT-29 > 100 µM | MDA-MB-231 > 100 µM | MDA-MB-435 > 100 µM | MOLT-4 45.1 µM | NCI-H226 > 100 µM | NCI-H23 > 100 µM | PC-3 > 100 µM | RPMI-8226 > 100 µM | SF-268 > 100 µM | SK-MEL-5 > 100 µM | SR > 100 µM | U-251 > 100 µM

Source: ChEMBL document CHEMBL1201862, “PubChem BioAssay data set” (2004)
